One data set relates to heart muscle. The data set is described as follows: Inhibition of heart muscle necrosis in rat caused by clogging of the coronary artery and subsequent blood reperfusion (tissue CPK). It is filed as in vivo. As to conditions: male SD rats; 6 mg/kg intravenously 5 minutes before ligature; ischemic area 2 hours after reperfusion; p < 0.05 vs control. The protocol: 1 (4) Activity for inhibiting the heart muscle necrosis in rat caused by clogging of the coronary artery and subsequent blood reperfusion
Male rats of SD strain (7-10 week old, 250-350 g) were used in this test. The activity of creatine phosphokinase (CPK) in tissue was used as an indication of heart muscle necrosis.
A test compound was dissolved in a small amount of 1N aqueous NaOH solution, then diluted with a physiological saline solution, and administered at a dose of 1 ml/kg of body weight. Each rat was anesthetized with pentobarbital and thoracotomized under artifical respiration; the descending branch before left coronary artery was ligated with a piece of silk string for 12 minutes; then, the blood was reperfused. Thereafter, the thoracotomized chest was closed and the rat was waken from anesthesia. 2 hours after reperfusion, the heart was enucleated under anesthesia; only the ischemic area was homogenized; and the activity of CPK contained therein was measured. The test compound was intravenously administered at a dose of 6 mg/kg 5 mintues before ligature of the coronary artery.
The results on the NaOH/physiological saline solution-administered group as a control and the compound-administered group are shown in Table 19.

Data set [1] concerns human neutrophilic leukocytes. The data set is described as follows: Inhibition of superoxide radical (O2-) generation in FMLP-stimulated human neutrophilic leukocytes (ferricytochrome C method). The following applies: Homo sapiens, Leukocyte. It is filed as cell-based. An outline of the steps:
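Neutrophils were isolated from healthy adult blood by dextran-hypotonic treatment and Ficoll-Paque gradient. Compounds in DMSO were pre-incubated with the cells at 37° C before FMLP stimulation. O2− generation was measured by ferricytochrome C reduction.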

Structures are written as SMILES.

Turning to `CCOc1ccc(-c2nc(-c3cc(C(=O)O)ccn3)cs2)cc1OCC` [Example 516, 2(3,4-diethoxyphenyl)-4-(4-carboxy-2-pyridyl)thiazole], the melting point is 236.2 to 237.2 °C.

For the compound `COc1cc(-c2nc(-c3ccc4c(c3)CCC(=O)N4)cs2)ccc1[S+](C)[O-]` (stereo not drawn) [Example 149, 2-(3-methoxy-4-methylsulfinylphenyl)-4-(3,4-dihydrocarbostyril-6-yl)thiazole], the melting point fell in the range of 264 to 265 °C.

As to `O=C1CCc2cc(-c3csc(-c4ccc(C(=O)O)cc4)n3)ccc2N1` [Example 147, 2-(4-carboxyphenyl)-4-(3,4-dihydrocarbostyril-6-yl)thiazole], the melting point was ≥ 300 °C.

`C=CCc1cc(-c2csc(-c3ccc(OCC)c(OCC)c3)n2)cc(C(=O)OC)c1O` [Example 353, 2-(3,4-diethoxyphenyl)-4-(3-methoxycarbonyl-4-hydroxy-5-allylphenyl)thiazole]: the melting point was 118 to 119 °C.

As to `CCOc1ccc(-c2nc(-c3ccc(O)c(C(=O)O)c3)cs2)cc1OCC` [compound 62, 4-(3-Carboxy-4-hydroxyphenyl)-2-(3,4-diethoxy-phenyl)thiazole], in the data set on heart muscle, the “Activity of creatine phosphokinase in tissue, Mean ± S.E.” value is 19.53 ± 1.56 U/mg of protein. For the same compound, the IC50 in data set [1] (Table 16, comparative test present compounds vs prior art compounds, NE = not effective) was found to be 10 nM; in data set [1] (pH 7.4, Table 15, O2- generation, 3x10^-7 M FMLP, cytochalasin B, 37° C., pH 7.4), 10 nM.

The compound `CCOc1ccc(-c2nc(-c3ccc(O[C@@H]4O[C@H](CO)[C@@H](O)[C@H](O)[C@H]4O)cc3)cs2)cc1OCC` [Example 237, 4-[4-(β-D-glucopyranosyloxy)-phenyl]-2-(3,4-diethoxyphenyl)thiazole] came in with a melting point of 138 to 140 °C.

Take `CCOC(=O)C=Cc1cc(-c2csc(-c3ccc(OCC)c(OCC)c3)n2)cc(C(=O)OCOC)c1OCOC` [Example 512, 2-(3,4-diethoxyphenyl)-4-[3-methoxymethoxycarbonyl-4-methoxymethoxy-5-(2-ethoxycarbonylvinyl)phenyl]thiazole]: the melting point fell in the range of 94 to 96 °C.

For the compound `CCOc1ccc(-c2nc(-c3cccc(CO)n3)cs2)cc1OCC` [Example 454, 2-(3,4-diethoxyphenyl)-4-(2-hydroxymethyl-6-pyridyl)thiazole], the melting point lay within 109 to 113 °C.

For `COc1ccc(-c2nc(-c3ccc4c(c3)CCCN4)cs2)cc1OC.Cl`, the melting point is 156 to 158 °C.

`CCOc1ccc(-c2nc(-c3ccc(N4CCOCC4)c([N+](=O)[O-])c3)cs2)cc1OCC` [Example 242, 4-(4-morpholino-3-nitrophenyl)-2-(-3,4-diethoxyphenyl) thiazole]: the melting point lay within 119 to 120 °C.

`[O-][n+]1cccc(-c2nc(-c3ccccc3)cs2)c1` [Example 139, 3-(4-phenylthiazol-2-yl) pyridine-N-oxide] registered a melting point of 140 to 141 °C.

The compound `COc1ccc(-c2nc(-c3ccc(OS(=O)(=O)O)cc3)cs2)cc1OC` [Example 238, 4-(4-hydroxysulfonyloxyphenyl)-2-(3,4-dimethoxyphenyl)thiazole] displayed a melting point of 248 to 249 °C.

Turning to `CCOc1ccc(-c2nc(-c3ccc(N)c(C(=O)O)c3)cs2)cc1OCC` [Example 359, 2-(3,4-diethoxyphenyl)-4-(3-carboxy-4-aminophenyl)thiazole], the melting point is 228 to 229 °C.

`NC(=O)c1ccc(-c2nc(-c3ccc4c(c3)CCC(=O)N4)cs2)cc1` [Example 148, 2-(4-carbamoylphenyl)-4-(3,4-dihydrocarbostyril-6-yl)thiazole]: the melting point was ≥ 300 °C.

For `COc1ccc(C(=O)c2nc(-c3ccc4[nH]c(=O)c(O)c(O)c4c3)cs2)cc1OC` [Example 152, 2-(3,4-dimethoxybenzoyl)-4-(3,4-dihydroxycarbostyril-6-yl) thiazole], the melting point was 249 to 251 °C.

`COc1ccc(-c2nc(-c3ccc(O)c(O)c3)cs2)cc1OC.Cl` [Example 1, 2-(3,4-dimethoxyphenyl)-4-(3,4-dihydroxyphenyl) thiazole hydrochloride] registered a melting point of 146 to 148 °C.

Compound `COc1ccc(-c2nc(-c3ccc4c(c3)CCCN4C(=O)c3ccccc3)cs2)cc1OC` [Example 144, 2-(3,4-dimethoxyphenyl)-4-(1-benzoyl-1,2,3,4-tetrahydroquinolin-6-yl)thiazole] showed a melting point of 152.5 to 153.5 °C.

Compound `CCOc1ccc(-c2nc(-c3ccc(OS(=O)(=O)C(F)(F)F)c(C(=O)OC)c3)cs2)cc1OCC` [Example 457, 2-(3,4-diethoxyphenyl)-4-(3-methoxycarbonyl-4-trifluoromethanesulfonyloxyphenyl) thiazole] registered a melting point of 112 to 113 °C.

In turn, `CCOc1ccc(-c2nc(-c3ccc(O[Si](C)(C)C(C)(C)C)c(CO)c3)cs2)cc1OCC` displayed a melting point of 101.3 to 103 °C.

In turn, `COc1ccc(-c2nc(-c3ccc4c(c3)N(C)C(=O)CS4)cs2)cc1OC` [Example 143, 2-(3,4-dimethoxyphenyl)-4-(4-methyl-2H-1,4-benzothiazin-3(4H)-one-6-yl)thiazole] gave a melting point of 143.5 to 144 °C.

Turning to `CCOc1ccc(-c2nc(-c3cc(C(=O)O)c(O)cc3O)cs2)cc1OCC` [Example 360, 2-(3,4-diethoxyphenyl)-4-(3-carboxy-4,6-dihydroxyphenyl)thiazole], the melting point lay in the range of 233 to 234 °C.

For `CCOc1ccc(-c2nc(-c3ccc(NCCN4CCCCC4)c(C(=O)OC)c3)cs2)cc1OCC.Cl.Cl`, the melting point fell in the range of 93 to 94 °C.

`CCOc1ccc(-c2nc(Cn3cccc3C(C)=O)cs2)cc1OCC` [Example 459, 2-(3,4-diethoxyphenyl)-4-(2-acetyl-1-pyrrolyl)methylthiazole] gave a melting point of 123 to 124 °C.

Take `CCOc1ccc(-c2nc(-c3cccc(C(=O)O)c3)cs2)cc1OCC` [Example 362, 2-(3,4-diethoxyphenyl)-4-(3-carboxyphenyl)thiazole]: the melting point was 192 to 192.8 °C.

`CCCc1cc(-c2csc(-c3ccc(OCC)c(OCC)c3)n2)cc(C(=O)O)c1O` [Example 363, 2-(3,4-diethoxyphenyl)-4-(3-carboxy-4-hydroxy-5-propylphenyl)thiazole] returned a melting point of 179 to 180 °C.

As to `COc1ccc(-c2nc(-c3ccc4c(c3)CCC(=O)N4)co2)cc1OC` [Example 137, 2-(3,4-dimethoxyphenyl)-4-(3,4-dihydrocarbostyril-6-yl) oxazole], the melting point fell in the range of 191 to 192 °C.

Regarding `COc1cc(-c2nc(-c3ccc4c(c3)CCC(=O)N4)cs2)ccc1S(C)(=O)=O` [Example 150, 2-(3-methoxy-4-methylsulfonylphenyl)-4-(3,4-dihydrocarbostyril-6-yl)thiazole], the melting point was in the range of 284 to 286 °C.

`CCOc1ccc(-c2nc(-c3ccc(SC(=O)N(C)C)c(C(=O)OC)c3)cs2)cc1OCC` [Example 354, 2-(3,4-diethoxyphenyl)-4-(4-dimethylaminocarbonylthio-3-methoxycarbonylphenyl)thiazole]: the melting point lay in the range of 108 to 109 °C.

(Values after USRE37556E1, “Superoxide radical inhibitor” (Otsuka Pharmaceutical Co., Ltd., priority 1990, dated 2002).)
